Measured values as given in article PMC8540097, “Novel Oleanolic Acid-Tryptamine and -Fluorotryptamine Amides: From Adaptogens to Agents Targeting In Vitro Cell Apoptosis” (Plants, 2021).
Several values for one entry are separate records, joined by “and”; a condition that tells them apart may be missing. Identical values can stand only once. Like-named read-outs stand apart in the source and are kept apart here.

Experiments:
[1] = tested on: HeLa (cervical carcinoma); assay: Cytotoxicity screening test, HeLa cells (resazurin, 72 h); assay type: cell-based, human
Method: (§1) The screening human cancer cell lines used in this investigation were CEM (T-lymphoblastic leukemia), MCF7 (breast carcinoma), HeLa (cervical carcinoma) and G-361 (malignant melanoma) from the European Collection of Authenticated Cell Cultures (Salisbury, UK). Human foreskin fibroblasts (BJ) were used as reference cells, and they were a kind gift from Prof. Bartek from Danish Cancer Society Center (Copenhagen, Denmark). Cells were cultured in DMEM (Dulbecco’s Modified Eagle Medium) or in RPMI 1640 medium (CEM). Media used were supplemented with 10% fetal or 20% (CEM) bovine serum, L-glutamine (2 mM), and 1% penicillin-streptomycin mixture (all from Sigma, MO, USA). The cell lines were maintained under standard cell culture conditions at 37 °C and 5% CO2 in a humid environment. Cells were subcultured twice or three times a week using the standard trypsinization procedure. A description of the experimental procedure used in the cytotoxicity screening tests was already published. The cell viability was measured after 72 h using resazurin (Sigma, St. Louis, MO, USA).

[2] = tested on: CEM (T-lymphoblastic leukemia); assay: Cytotoxicity screening test, CEM cells (resazurin, 72 h); assay type: cell-based; conditions: Homo sapiens, CCRF-CEM
Method: as §1

MCF7 (breast carcinoma) = assay: Cytotoxicity screening test, MCF7 cells (resazurin, 72 h); assay type: cell-based, human
Method: as §1

[3] = Cytotoxicity screening test, BJ reference fibroblasts (resazurin, 72 h); assay type: cell-based; conditions: human, BJ foreskin fibroblasts (normal reference cells)
Method: as §1

[4] = tested on: G-361 (malignant melanoma); assay: Cytotoxicity screening test, G-361 cells (resazurin, 72 h); assay type: cell-based, human
Method: as §1

[5] = tested on: cervical carcinoma cells (HeLa); assay: Flow cytometric analysis of cell cycle and apoptosis, HeLa cells; assay type: cell-based, human; conditions: 24 h
Method: (§2) A flow cytometric analysis, SDS–polyacrylamide gel electrophoresis and immunoblotting, and activities of caspase-3/7 were used to detect apoptosis in cervical carcinoma cells (HeLa) and malignant melanoma cells (G-361) treated for 24 h with 3a–3c (c = 3, 10 and 30 µM). The DNA content of HeLa or G-361 treated with 3a–3c for 24 h were analyzed using flow cytometry. Cells (HeLa and G-361), treated with the same concentrations of compounds for 24 h, were analyzed using electrophoresis and Western blotting, and the activity of caspase-3/7 by the standard methods. All experimental details of these methods were described in our recent paper.
Figure 1 Flow cytometric analysis of cell cycle of HeLa cancer cells (A) and apoptosis (B). Flow cytometric analysis of cell cycle (A) and apoptosis (B) of human cervical carcinoma cells (HeLa) after 24 h with 3a–3c (3, 10 and 30 µM). The bars 0 means control untreated cells, the bars 0+ means control with DMSO. The experiment was repeated at least twice in triplicates. All data were analyzed by statistical software. Significance is indicated with an asterisk (*) (p ˂ 0.05).

[6] = tested on: malignant melanoma cells (G-361); assay: Flow cytometric analysis of cell cycle and apoptosis, G-361 cells; assay type: cell-based, human; conditions: G-361, 24 h
Method: as §2
3. Apoptosis in human cancer cells.
A detailed description of investigation of apoptosis in the HeLa and G-361 cancer cells is given in the main text of this paper. Because the results achieved with the G-361 cancer cells appeared to be less pronounced than those achieved with the HeLa cells, Figures S1A, S1B, S2 and S3 showing the results with G-361 cells are presented in the Supplementary material.
Figure S1A and S1B. Flow cytometric analysis of cell cycle (A) and apoptosis (B) of human malignant melanoma cells (G-361) after 24 h with 3a–3c (3, 10 and 30 µM). The bars 0 means control untreated cells, the bars 0+ means control with DMSO. Error bars are omitted for graph clarity. Experiment was repeated at least twice in duplicates.
Figure S1A. Flow cytometric analysis of cell cycle of G-361 cancer cells.
(1 picture or pasted object on this page, not shown here)

[7] = tested on: caspase-3/7 in HeLa cells; assay: Activity of caspase-3/7 in HeLa cells; assay type: cell-based, human; conditions: 24 h, c = 30 µM, versus control
Method: as §2
Figure 3 Activity of caspase-3/7. Activity of caspase-3/7 after 24 h treatment with 3a–3c (3, 10 and 30 µM) in HeLa cells. The bars 0 are control untreated cells, the bars 0+ are control cells with DMSO. The experiment was repeated at least twice in duplicates. All data were analyzed by statistical software. Significance is indicated with an asterisk (*) (p ˂ 0.05).

[8] = Homo sapiens, HeLa, resazurin, read-out: Cytotoxicity IC50, HeLa
[9] = Homo sapiens, MCF7, resazurin, read-out: Cytotoxicity IC50, MCF7
[10] = Homo sapiens, G-361, resazurin, read-out: Cytotoxicity IC50, G-361
[11] = individual runs, Table S1, read-out: Cytotoxicity IC50, HeLa, single repeated screening runs (italics)
[12] = Homo sapiens, MCF7, 72 h, resazurin, read-out: Cytotoxicity IC50, MCF7
[13] = Homo sapiens, G-361, 72 h, resazurin, read-out: Cytotoxicity IC50, G-361
[14] = individual runs, Table S1, read-out: Cytotoxicity IC50, G361, single repeated screening runs (italics)
[15] = Homo sapiens, HeLa, individual runs, Table S1, read-out: Cytotoxicity IC50, HeLa, single repeated screening runs (italics)
[16] = individual runs, Table S1, read-out: Cytotoxicity IC50, MCF7, single repeated screening runs (italics)

With `CC(=O)O[C@H]1CC[C@]2(C)[C@H]3CC=C4[C@@H]5CC(C)(C)CC[C@]5(C(=O)O)CC[C@@]4(C)[C@]3(C)CC[C@H]2C1(C)C` [Compound 2, (3β)-3-(acetyloxy)olean-12-en-28-oic acid] the IC50 [1, 8] was > 50 µM, the IC50 [2] was > 50 µM and the IC50 (MCF7 (breast carcinoma); [9]) was > 50 µM. The IC50 at 72 h [3] was > 50 µM and the IC50 [4, 10] was > 50 µM.

For `NCCc1c[nH]c2ccccc12` [tryptamine], the IC50 [1, 8] was > 50 µM, the IC50 [2] was > 50 µM and the IC50 (MCF7 (breast carcinoma); [9]) was > 50 µM. For the same compound, the IC50 at 72 h [3] was > 50 µM and the IC50 [4, 10] was > 50 µM.

In the case of `CC(=O)O[C@H]1CC[C@]2(C)[C@H]3CC=C4[C@@H]5CC(C)(C)CC[C@]5(C(=O)NCCc5c[nH]c6cc(F)ccc56)CC[C@@]4(C)[C@]3(C)CC[C@H]2C1(C)C` [Compound 3b], the “Induction of apoptosis (apoptotic cells)” value ([5]; c = 10 µM) is reported as “up to 6.4%”, the “Effect on cell cycle” value ([5]; c = 30 µM) is reported as “increased the number of cells in the G2/M phase” and the IC50 [1, 8] is reported as 6.7 ± 1.4 µM. For the same compound, the IC50 [1, 11] was 7.7 µM and 13.1 µM and 5.7 µM, the “Level of apoptotic cells in subG1 phase” value [6] was “increased the level of apoptotic cells” and the “Effect on cell cycle” value ([6]; c = 10 µM) was “increase of accumulation of the S-phase cells”. The IC50 [2] was > 50 µM, the IC50 (MCF7 (breast carcinoma); [12]) was > 50 µM and the melting point was 139 to 140 °C. For the same compound, the IC50 at 72 h [3] was > 50 µM, the IC50 [4, 13] was 15.9 ± 6.6 µM and the IC50 [4, 14] was > 50 µM and 23 µM and 9.9 µM and 14.9 µM. The “Induction of caspase-3/7 activity” value [7] was “up to 4.6 times”.

In the case of `CC1(C)CCC2(C(=O)NCCc3c[nH]c4cc(F)ccc34)CCC3(C)C(=CCC4C5(C)CCC(O)C(C)(C)C5CCC43C)C2C1` (stereo not drawn) [Compound 4b], the IC50 [1, 15] is reported as 27.3 µM, the IC50 [1, 8] is reported as 27.9 ± 0.8 µM and the IC50 [1, 11] is reported as 28.5 µM and > 50 µM. The IC50 [2] was > 50 µM, the IC50 (MCF7 (breast carcinoma); Homo sapiens, MCF7, 72 h, individual runs, Table S1, read-out: Cytotoxicity IC50, MCF7, single repeated screening runs (italics)) was 44.5 µM and the IC50 (MCF7 (breast carcinoma); [12]) was > 50 µM. The IC50 (MCF7 (breast carcinoma); [16]) was > 50 µM, the melting point was 149 to 150 °C and the IC50 at 72 h [3] was > 50 µM. For the same compound, the IC50 [4, 13] was > 50 µM.

For `CC1(C)CC[C@]2(C(=O)O)CC[C@]3(C)C(=CC[C@@H]4[C@@]5(C)CC[C@H](O)C(C)(C)[C@@H]5CC[C@]43C)[C@@H]2C1` [Compound 1, (3β)-3-hydroxyolean-12-en-28-oic acid, reference compound], the IC50 [1, 8] was > 50 µM, the IC50 [2] was > 50 µM and the IC50 (MCF7 (breast carcinoma); [12]) was > 50 µM. The IC50 at 72 h [3] was > 50 µM and the IC50 [4, 13] was > 50 µM.

In the case of `CC(=O)O[C@H]1CC[C@]2(C)[C@H]3CC=C4[C@@H]5CC(C)(C)CC[C@]5(C(=O)NCCc5c[nH]c6ccccc56)CC[C@@]4(C)[C@]3(C)CC[C@H]2C1(C)C` [Compound 3a, Tryptamine amide of (3β)-3-(acetyloxy)olean-12-en-28-oic acid], the “Effect on cell cycle” value ([5]; c = 30 µM) is reported as “cell cycle arrest in the G2/M phase”, the “Induction of apoptosis (apoptotic cells)” value ([5]; c = 30 µM) is reported as 4% and the IC50 [1, 15] is reported as 8.4 µM. For the same compound, the IC50 [1, 8] was 8.7 ± 0.4 µM, the IC50 [1, 11] was 9 µM and the “Level of apoptotic cells in subG1 phase” value [6] was “up to 7.7%”. For the same compound, the “Effect on cell cycle” value ([6]; c = 10 µM) was “increase of accumulation of the S-phase cells”, the IC50 [2] was > 50 µM and the IC50 (MCF7 (breast carcinoma); [12]) was > 50 µM. For the same compound, the IC50 at 72 h [3] was > 50 µM, the IC50 ([4]; Homo sapiens, G-361, 72 h, individual runs, Table S1, read-out: Cytotoxicity IC50, G361, single repeated screening runs (italics)) was 8.7 µM and the IC50 [4, 13] was 9 ± 0.4 µM. The IC50 [4, 14] was 9.2 µM and the “Induction of caspase-3/7 activity” value [7] was “up to 4 times”.

In the case of `CC1(C)CCC2(C(=O)NCCc3c[nH]c4ccc(F)cc34)CCC3(C)C(=CCC4C5(C)CCC(O)C(C)(C)C5CCC43C)C2C1` (stereo not drawn) [Compound 4c], the IC50 [1, 15] is reported as 14.9 µM, the IC50 [1, 8] is reported as 20.3 ± 7.6 µM and the IC50 [1, 11] is reported as 29 µM and 17.1 µM. For the same compound, the IC50 [2] was > 50 µM, the IC50 (MCF7 (breast carcinoma); [12]) was 13.5 ± 3.3 µM and the IC50 (MCF7 (breast carcinoma); [16]) was 31.8 µM and > 50 µM and 11.2 µM and 15.8 µM. The melting point was 147 to 148 °C, the IC50 at 72 h [3] was > 50 µM and the IC50 [4, 13] was > 50 µM.

With `CC1(C)CCC2(C(=O)NCCc3c[nH]c4ccccc34)CCC3(C)C(=CCC4C5(C)CCC(O)C(C)(C)C5CCC43C)C2C1` (stereo not drawn) [Compound 4a] the IC50 [1, 8] was > 50 µM, the IC50 [1, 11] was 20.4 µM and > 50 µM (2×) and the IC50 [2] was > 50 µM. The IC50 (MCF7 (breast carcinoma); [12]) was > 50 µM, the IC50 at 72 h [3] was > 50 µM and the IC50 [4, 13] was > 50 µM. The IC50 [4, 14] was > 50 µM (2×) and 19.7 µM.

In the case of `CC(=O)O[C@H]1CC[C@]2(C)[C@H]3CC=C4[C@@H]5CC(C)(C)CC[C@]5(C(=O)NCCc5c[nH]c6ccc(F)cc56)CC[C@@]4(C)[C@]3(C)CC[C@H]2C1(C)C` [Compound 3c], the “Effect on cell cycle” value ([5]; c = 30 µM) is reported as “increased the number of cells in the G2/M phase”, the “Induction of apoptosis (apoptotic cells)” value ([5]; c = 30 µM) is reported as 2.7% and the IC50 [1, 8] is reported as 12.2 ± 4.7 µM. For the same compound, the IC50 [1, 11] was 10.4 µM and 17.6 µM and 8.7 µM, the “Effect on cell cycle” value ([6]; c = 3 µM) was “increase of accumulation of the S-phase cells” and the IC50 [2] was > 50 µM. For the same compound, the IC50 (MCF7 (breast carcinoma); [12]) was > 50 µM, the melting point was 138 to 139 °C and the IC50 at 72 h [3] was > 50 µM. For the same compound, the IC50 [4, 13] was > 50 µM.
